Source: publication PMC7943599, “ATP signaling in the integrative neural center of Aplysia californica” (Scientific Reports, 2021)
pEC50, pIC50: −log10 of the molar value.

Legend:
[1] = target: T1, AcP2X (Aplysia P2X receptor) (Aplysia californica, UniProt E2QDA7); assay: two-electrode voltage clamp in Xenopus oocytes, inhibition of current evoked by […] ATP (fast component); format: cell-based
T1 construct: full-length CDS AcP2X (GenBank NP_001191558.1) expressed in Xenopus oocytes
T1 sequence (E2QDA7 1-434): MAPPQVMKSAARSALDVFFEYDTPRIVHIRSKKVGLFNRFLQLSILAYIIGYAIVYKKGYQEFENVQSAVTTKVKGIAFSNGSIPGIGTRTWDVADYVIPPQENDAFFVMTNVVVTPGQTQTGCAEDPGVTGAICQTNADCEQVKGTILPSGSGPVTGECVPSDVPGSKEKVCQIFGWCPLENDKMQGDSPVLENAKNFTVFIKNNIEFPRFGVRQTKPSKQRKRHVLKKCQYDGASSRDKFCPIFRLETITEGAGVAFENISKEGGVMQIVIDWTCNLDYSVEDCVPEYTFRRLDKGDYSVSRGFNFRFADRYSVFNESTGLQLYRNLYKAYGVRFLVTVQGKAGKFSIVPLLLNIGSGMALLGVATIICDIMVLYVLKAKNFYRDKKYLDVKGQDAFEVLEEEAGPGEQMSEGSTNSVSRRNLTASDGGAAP

[2] = target: T1, AcP2X (Aplysia P2X receptor); assay: two-electrode voltage clamp in Xenopus oocytes, agonist dose-response (fast component; slow component EC50 […]); format: cell-based

| SMILES | pIC50 [1] | pEC50 [2] |
| --- | --- | --- |
| Cc1nc(/N=N/c2ccc(S(=O)(=O)O)cc2S(=O)(=O)O)c(COP(=O)(O)O)c(C=O)c1O [PPADS] | 3.68 | – |
| Nc1ncnc2c1ncn2[C@@H]1O[C@H](COP(=O)(O)OP(=O)(O)OP(=O)(O)O)[C@@H](O)[C@H]1O [ATP] | – | 3.51 |
